Assay results as given in ChEMBL document CHEMBL3885881, “DrugMatrix”.

Species on record: Rattus norvegicus
Assay: DrugMatrix - Regimen: Daily Repeat
Assay type: toxicity, organism-based, Sprague-Dawley
Parameters: regimen Daily Repeat, gender Male, age 6-8 weeks
Conditions: in vivo, po, route oral GAVAGE, vehicle .5 % CMC; for BASOPHIL / EOSINOPHIL / ERYTHROCYTE COUNT / HEMATOCRIT / HEMOGLOBIN / LEUKOCYTE COUNT / LYMPHOCYTE / MEAN CORPUSCULAR HEMOGLOBIN / MEAN CORPUSCULAR HEMOGLOBIN CONCENTRATION / MEAN CORPUSCULAR VOLUME / MONOCYTE / NEUTROPHIL / PLATELET COUNT: tissue Blood; for ALANINE AMINOTRANSFERASE / ALBUMIN / ALKALINE PHOSPHATASE / ASPARTATE AMINOTRANSFERASE / BLOOD UREA NITROGEN / CHLORIDE / CHOLESTEROL / CREATINE PHOSPHOKINASE / CREATININE / GLUCOSE / PHOSPHORUS / POTASSIUM / SODIUM / TOTAL BILIRUBIN / TOTAL PROTEIN: tissue Plasma
[1] = 0 mg/kg, 72 h, dose level Control, time 3 day
[2] = 0 mg/kg, 120 h, dose level Control, time 5 day
[3] = 1 mg/kg, 72 h, dose level Low, time 3 day

N=C(N)NC(=O)c1nc(Cl)c(N)nc1N [AMILORIDE]
BASOPHIL [1]: 0% | EOSINOPHIL [1]: 0.33% | ERYTHROCYTE COUNT [1]: 6.2 x10E6/uL | HEMATOCRIT [1]: 38.08% | HEMOGLOBIN [1]: 14.92 G/DL | LEUKOCYTE COUNT [1]: 11.13 x10E3/uL | LYMPHOCYTE [1]: 76% | MEAN CORPUSCULAR HEMOGLOBIN [1]: 24.1 pg | MEAN CORPUSCULAR HEMOGLOBIN CONCENTRATION [1]: 39.17 G/DL | MEAN CORPUSCULAR VOLUME [1]: 61.48 fL | MONOCYTE [1]: 3.83% | NEUTROPHIL [1]: 19.83% | PLATELET COUNT [1]: 1327.5 x10E3/uL | ALANINE AMINOTRANSFERASE [1]: 40.17 u/L | ALBUMIN [1]: 4.07 G/DL | ALKALINE PHOSPHATASE [1]: 372 u/L | ASPARTATE AMINOTRANSFERASE [1]: 67.17 u/L | BLOOD UREA NITROGEN [1]: 18.83 mg/dL | CHLORIDE [1]: 105.17 MEQ/L | CHOLESTEROL [1]: 78.17 mg/dL | CREATINE PHOSPHOKINASE [1]: 149.17 u/L | CREATININE [1]: 0.57 mg/dL | GLUCOSE [1]: 185.17 mg/dL | PHOSPHORUS [1]: 11.43 mg/dL | POTASSIUM [1]: 6.78 MEQ/L | SODIUM [1]: 152.83 MEQ/L | TOTAL BILIRUBIN [1]: 0.4 mg/dL | TOTAL PROTEIN [1]: 6.87 G/DL | BASOPHIL [2]: 0% | EOSINOPHIL [2]: 0% | ERYTHROCYTE COUNT [2]: 6.05 x10E6/uL | HEMATOCRIT [2]: 36.55% | HEMOGLOBIN [2]: 14.7 G/DL | LEUKOCYTE COUNT [2]: 11.8 x10E3/uL | LYMPHOCYTE [2]: 86.83% | MEAN CORPUSCULAR HEMOGLOBIN [2]: 24.37 pg | MEAN CORPUSCULAR HEMOGLOBIN CONCENTRATION [2]: 40.32 G/DL | MEAN CORPUSCULAR VOLUME [2]: 60.47 fL | MONOCYTE [2]: 0.83% | NEUTROPHIL [2]: 12.33% | PLATELET COUNT [2]: 1177 x10E3/uL | ALANINE AMINOTRANSFERASE [2]: 41.83 u/L | ALBUMIN [2]: 3.75 G/DL | ALKALINE PHOSPHATASE [2]: 377.5 u/L | ASPARTATE AMINOTRANSFERASE [2]: 60.83 u/L | BLOOD UREA NITROGEN [2]: 16 mg/dL | CHLORIDE [2]: 105.67 MEQ/L | CHOLESTEROL [2]: 67.83 mg/dL | CREATINE PHOSPHOKINASE [2]: 120.33 u/L | CREATININE [2]: 0.6 mg/dL | GLUCOSE [2]: 167.67 mg/dL | PHOSPHORUS [2]: 10.03 mg/dL | POTASSIUM [2]: 6.68 MEQ/L | SODIUM [2]: 150.5 MEQ/L | TOTAL BILIRUBIN [2]: 0.57 mg/dL | TOTAL PROTEIN [2]: 6.25 G/DL | BASOPHIL [3]: 0% | EOSINOPHIL [3]: 1.33% | ERYTHROCYTE COUNT [3]: 6.13 x10E6/uL | HEMATOCRIT [3]: 37.63% | HEMOGLOBIN [3]: 14.93 G/DL | LEUKOCYTE COUNT [3]: 12.73 x10E3/uL | LYMPHOCYTE [3]: 84% | MEAN CORPUSCULAR HEMOGLOBIN [3]: 24.37 pg | MEAN CORPUSCULAR HEMOGLOBIN CONCENTRATION [3]: 39.67 G/DL | MEAN CORPUSCULAR VOLUME [3]: 61.4 fL | MONOCYTE [3]: 0.67% | NEUTROPHIL [3]: 14% | PLATELET COUNT [3]: 1265 x10E3/uL | ALANINE AMINOTRANSFERASE [3]: 50 u/L | ALBUMIN [3]: 3.87 G/DL | ALKALINE PHOSPHATASE [3]: 414 u/L | ASPARTATE AMINOTRANSFERASE [3]: 63.67 u/L | BLOOD UREA NITROGEN [3]: 15.67 mg/dL | CHLORIDE [3]: 107 MEQ/L | CHOLESTEROL [3]: 81.33 mg/dL | CREATINE PHOSPHOKINASE [3]: 135.67 u/L | CREATININE [3]: 0.57 mg/dL | GLUCOSE [3]: 168.67 mg/dL | PHOSPHORUS [3]: 10.33 mg/dL | POTASSIUM [3]: 6.13 MEQ/L | SODIUM [3]: 152.33 MEQ/L | TOTAL BILIRUBIN [3]: 0.43 mg/dL | TOTAL PROTEIN [3]: 6.37 G/DL
